# Data: patent US6881749B2, “Pyranoindazoles and their use for the treatment of glaucoma” (Alcon, Inc., priority 2001, dated 2005)
# What was measured:
# [1] = test system: rabbits; conditions: cited from earlier work
# [2] = test system: Conscious Cynomolgus Monkeys; experiment: IOP response in conscious cynomolgus monkeys; type: in vivo, cynomolgus monkey; conditions: dose 100 μg, 6 hours after dose
# [3] = test system: monkey; conditions: due to its α1A receptor activity; cited from earlier work
smiles,measurement,setting,value
"CCCN(CCC)C1CCc2cccc(O)c2C1 (stereo not drawn) [Example 8-OH-DPAT, 8-hydroxydipropylaminotetralin]",effect on IOP,[1],reduces IOP
COc1cc(C[C@@H](C)N)c(OC)cc1I [(R)-DOI],Percent IOP Reduction ± SEM,[2],34.4 ± 4.98%
COc1ccccc1N1CCN(CCCNc2c(C)c(=O)n(C)c(=O)n2C)CC1 [5-methylurapidil],effect on IOP,[3],lowers IOP
